Results published in ChEMBL document CHEMBL1201862, “PubChem BioAssay data set” (2004).
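Five compound concentrations were applied to cells in 96-well plates for 48 hours; endpoints were derived by simple linear interpolation of the resulting dose-response curve. GI50: concentration for 50% inhibition of growth.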 Active and inactive are the calls of the source. Rule as the data show it: active = GI50 up to about 1.1 µM and inactive = higher.

Tests used:
Experiment in all cases: DTP human tumour cell line panel, 48 h
A498 = tested on: A498
CAKI-1 = tested on: CAKI-1
CCRF-CEM = tested on: CCRF-CEM
COLO 205 = tested on: COLO 205
EKVX = tested on: EKVX
HCC 2998 = tested on: HCC 2998
HCT-116 = tested on: HCT-116
HT-29 = tested on: HT-29
M14 = tested on: M14
MCF7 = tested on: MCF7
MDA-N = tested on: MDA-N
MOLT-4 = tested on: MOLT-4
OVCAR-5 = tested on: OVCAR-5
OVCAR-8 = tested on: OVCAR-8
SF-539 = tested on: SF-539
SNB-19 = tested on: SNB-19
UACC-62 = tested on: UACC-62
OVCAR-4 = tested on: OVCAR-4
SK-MEL-2 = tested on: SK-MEL-2
SK-OV-3 = tested on: SK-OV-3

Measured: GI50

C=CC1ON(C)CCc2cc(OC)c(OC)cc21 (stereo unspecified)
inactive: A498 > 100 µM | CAKI-1 > 100 µM | CCRF-CEM > 100 µM | COLO 205 > 100 µM | EKVX > 100 µM | HCC 2998 > 100 µM | HCT-116 > 100 µM | HT-29 > 100 µM | M14 > 100 µM | MCF7 1.63 µM | MDA-N > 100 µM | MOLT-4 > 100 µM | OVCAR-5 > 100 µM | OVCAR-8 > 100 µM | SF-539 > 100 µM | SNB-19 > 100 µM | UACC-62 65.6 µM

O=C(Nc1ccccc1)N(CCN(Cc1ccccc1)C(=O)Nc1ccccc1)CCN(Nc1ccccc1)C(=O)Nc1ccccc1
inactive: A498 > 100 µM | CAKI-1 > 100 µM | CCRF-CEM > 100 µM | COLO 205 > 100 µM | EKVX > 100 µM | HCC 2998 > 100 µM | HCT-116 > 100 µM | HT-29 > 100 µM | M14 92.9 µM | MCF7 > 100 µM | MDA-N > 100 µM | MOLT-4 > 100 µM | OVCAR-4 > 100 µM | OVCAR-5 > 100 µM | OVCAR-8 > 100 µM | SK-MEL-2 > 100 µM | SK-OV-3 > 100 µM | SNB-19 > 100 µM | UACC-62 > 100 µM

CCCn1c(SC)nc(COC(=O)NC)c1COC(=O)NC
inactive: A498 64 µM | CAKI-1 > 100 µM | CCRF-CEM > 100 µM | COLO 205 > 100 µM | EKVX > 100 µM | HCT-116 > 100 µM | HT-29 > 100 µM | M14 > 100 µM | MCF7 > 100 µM | MDA-N > 100 µM | MOLT-4 > 100 µM | OVCAR-4 > 100 µM | OVCAR-5 > 100 µM | OVCAR-8 > 100 µM | SF-539 > 100 µM | SK-MEL-2 > 100 µM | SK-OV-3 > 100 µM | SNB-19 > 100 µM | UACC-62 > 100 µM

CC1(C)C2CCC(N)(C2)C1O (stereo unspecified)
inactive: A498 > 100 µM | CAKI-1 > 100 µM | CCRF-CEM > 100 µM | COLO 205 > 100 µM | EKVX > 100 µM | HCC 2998 > 100 µM | HCT-116 > 100 µM | M14 > 100 µM | MCF7 > 100 µM | MDA-N > 100 µM | MOLT-4 > 100 µM | OVCAR-4 > 100 µM | OVCAR-5 > 100 µM | OVCAR-8 > 100 µM | SK-MEL-2 > 100 µM | SK-OV-3 > 100 µM | SNB-19 > 100 µM | UACC-62 > 100 µM

Cn1c(=O)c2c(nc(NCCCCl)n2CC(=O)O)n(C)c1=O
inactive: A498 > 100 µM | CAKI-1 > 100 µM | CCRF-CEM > 100 µM | COLO 205 > 100 µM | EKVX > 100 µM | HCC 2998 > 100 µM | HCT-116 > 100 µM | HT-29 > 100 µM | M14 > 100 µM | MCF7 > 100 µM | MDA-N > 100 µM | MOLT-4 2.74 µM | OVCAR-4 > 100 µM | OVCAR-5 > 100 µM | OVCAR-8 > 100 µM | SK-MEL-2 > 100 µM | SK-OV-3 > 100 µM | SNB-19 > 100 µM | UACC-62 > 100 µM

O=C(O)CCc1c2ccc(=O)c(O)c-2oc2c(O)c(O)ccc12
inactive: A498 46.7 µM | CAKI-1 > 100 µM | CCRF-CEM 2.29 µM | COLO 205 > 100 µM | EKVX 28.8 µM | HCC 2998 8.55 µM | HCT-116 18.9 µM | HT-29 > 100 µM | M14 > 100 µM | MCF7 14.8 µM | MDA-N 16.3 µM | MOLT-4 23.3 µM | OVCAR-4 46.2 µM | OVCAR-5 > 100 µM | OVCAR-8 54.6 µM | SK-MEL-2 > 100 µM | SK-OV-3 > 100 µM | SNB-19 > 100 µM | UACC-62 > 100 µM
